This passage reports DC50 results from patent US20230295197A1, “STAT5 and STAT6 Degraders and Uses Thereof” (REGENTS OF THE UNIVERSITY OF MICHICAN, priority 2022, published 2023).

Read-outs that look alike come from different tables or passages of the source.

The test system of one test is STAT5. The test is described as follows: Immunoblotting (Western blot) analysis of STAT5 degradation efficiency of degraders in treated cells. The format is cell-based. The method in brief: (§1)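 ~1e6 cells/pt; cpd at indicated conc and duration; RIPA + protease/phosphatase inhibitors; BCA; 20-40 μg/lane Tris-glycine SDS-PAGE; PVDF; primary Ab 1:1000 o/n 4 °C; IRDye secondaries 1 h rt; infrared scan and densitometry; GAPDH loading ctrl.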
On the technique in general: In western blotting, separated proteins are transferred to a membrane and probed.

Another test addresses T1, STAT6 (Homo sapiens, UniProt P42226).
T1 construct: endogenous in cells; host or cells: MOLM-16, KU-812, SKNO1, MB231, L1236
T1 sequence (P42226 1-847): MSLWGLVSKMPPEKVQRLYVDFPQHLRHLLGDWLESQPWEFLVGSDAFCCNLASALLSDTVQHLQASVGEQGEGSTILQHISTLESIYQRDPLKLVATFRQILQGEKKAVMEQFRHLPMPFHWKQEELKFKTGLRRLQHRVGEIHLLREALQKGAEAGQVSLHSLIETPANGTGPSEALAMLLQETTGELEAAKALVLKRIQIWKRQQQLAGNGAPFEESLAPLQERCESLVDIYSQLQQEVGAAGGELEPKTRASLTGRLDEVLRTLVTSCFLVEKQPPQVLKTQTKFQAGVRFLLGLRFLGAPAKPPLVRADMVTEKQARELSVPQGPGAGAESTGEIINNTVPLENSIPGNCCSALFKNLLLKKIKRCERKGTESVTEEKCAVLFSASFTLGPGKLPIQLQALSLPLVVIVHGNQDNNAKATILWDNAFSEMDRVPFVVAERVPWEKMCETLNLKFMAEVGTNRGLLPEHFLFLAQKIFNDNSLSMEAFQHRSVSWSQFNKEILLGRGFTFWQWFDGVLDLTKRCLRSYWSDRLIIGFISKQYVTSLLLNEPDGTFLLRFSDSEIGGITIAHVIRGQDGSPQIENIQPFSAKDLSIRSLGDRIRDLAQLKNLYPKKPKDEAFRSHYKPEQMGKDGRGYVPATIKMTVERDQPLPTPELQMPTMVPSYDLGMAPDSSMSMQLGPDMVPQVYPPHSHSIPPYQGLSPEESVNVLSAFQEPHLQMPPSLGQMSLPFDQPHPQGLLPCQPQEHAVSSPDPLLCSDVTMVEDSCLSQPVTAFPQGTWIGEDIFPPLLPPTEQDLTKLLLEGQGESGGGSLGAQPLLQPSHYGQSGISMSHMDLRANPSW
Kind of test: Immunoblotting (Western blot) analysis of STAT6 degradation efficiency of degraders in treated cells. The class given is cell-based. The essentials:
as §1

Where [1] appears, read: MOLM-16 cells, numeric bound, read-out: DC50 S5 MOLM-16.
[2] abbreviates: MOLM-16 cells, numeric bound, read-out: DC50 S6 MOLM-16.
[3] abbreviates: SKNO1 cells, read-out: DC50 S5 SKNO1.
The mark [4] stands for this setting: L1236 cells, read-out: DC50 S6 L1236.
Setting [5] is: MB231 cells, read-out: DC50 S6 MB231.
The mark [6] stands for this setting: KU-812 cells, read-out: DC50 S5 KU-812.
Setting [7] is: MOLM-16 cells, class symbols, read-out: DC50 S5 MOLM-16.

In general, DC50 refers to the concentration at which degradation of the target reaches its halfway point. For `Cc1ncsc1-c1ccc([C@H](CC(=O)NCCCCCCCCCC(=O)N[C@@H]2C[C@@H](C(=O)Nc3ncc(-c4ccccc4)s3)N(C(=O)[C@@H](NC(=O)c3cc4cc(C(F)(F)P(=O)(O)O)ccc4s3)C(C)(C)C)C2)NC(=O)[C@@H]2C[C@@H](O)CN2C(=O)[C@@H](NC(=O)C2(F)CC2)C(C)(C)C)cc1` [Compound 579, (difluoro(2-(((S)-1-((2S,4R)-4-(10-((S)-3-((2S,4R)-1-((S)-2-(1-fluorocyclopropane-1-carboxamido)-3,3-dimethylbutanoyl)-4-hydroxypyrrolidine-2-carboxamido)-3-(4-(4-methylthiazol-5-yl)phenyl)propanamido)decanamido)-2-((5-phenylthiazol-2-yl)carbamoyl)pyrrolidin-1-yl)-3,3-dimethyl-1-oxobutan-2-yl)carbamoyl)benzo[b]thiophen-5-yl)methyl)phosphonic acid], the DC50 in the test on STAT5 (setting [1]) and at STAT6 (setting [2]) was over 300 nM throughout.
Turning to `CN(C(=O)[C@@H]1C[C@@H](OCC(=O)NCCCCCCCCCC#Cc2cccc3c2CN(C2CCC(=O)NC2=O)C3=O)CN1C(=O)[C@@H](NC(=O)c1cc2cc(C(F)(F)P(=O)(O)O)ccc2s1)C(C)(C)C)c1ccc(Br)cc1` (stereo partly drawn) [Compound 415, ((2-(((2S)-1-((2S,4R)-2-((4-bromophenyl)(methyl)carbamoyl)-4-(2-((11-(2-(2,6-dioxopiperidin-3-yl)-1-oxoisoindolin-4-yl)undec-10-yn-1-yl)amino)-2-oxoethoxy)pyrrolidin-1-yl)-3,3-dimethyl-1-oxobutan-2-yl)carbamoyl)benzo[b]thiophen-5-yl)difluoromethyl)phosphonic acid], the half-maximal degradation concentration (DC50) in the test with STAT5 (setting [3]), on STAT6 (setting [4]) and at STAT6 (setting [5]) was over 10000 nM throughout.
Consider `CC(C)(C)[C@H](NC(=O)c1cc2cc(C(F)(F)P(=O)(O)O)ccc2s1)C(=O)N1CCC[C@H]1C(=O)N(CCC(=O)NCCCC#Cc1cccc2c1CN(C1CCC(=O)NC1=O)C2=O)c1ccc(-c2ccccc2)cc1` (stereo partly drawn) [Compound 663, ((2-(((2S)-1-((2S)-2-([1,1′-biphenyl]-4-yl(3-((5-(2-(2,6-dioxopiperidin-3-yl)-1-oxoisoindolin-4-yl)pent-4-yn-1-yl)amino)-3-oxopropyl)carbamoyl)pyrrolidin-1-yl)-3,3-dimethyl-1-oxobutan-2-yl)carbamoyl)benzo[b]thiophen-5-yl)difluoromethyl)phosphonic acid], for which the 50% degradation concentration (DC50) with STAT5 (setting [6]) was 1000 to 10000 nM; in the test with STAT5 (setting [1]), over 300 nM; in the test on STAT5 (setting [3]), 1000 to 10000 nM; on STAT6 (setting [2]), over 300 nM.
As for `CC(C)(C)[C@H](NC(=O)c1cc2cc(C(F)(F)P(=O)(O)O)ccc2s1)C(=O)N1CCC[C@H]1C(=O)N(CCC(=O)NCCCCCC#Cc1cccc2c1CN(C1CCC(=O)NC1=O)C2=O)c1ccc(Br)cc1` (stereo partly drawn) [Compound 405, ((2-(((2S)-1-((2S)-2-((4-bromophenyl)(3-((7-(2-(2,6-dioxopiperidin-3-yl)-1-oxoisoindolin-4-yl)hept-6-yn-1-yl)amino)-3-oxopropyl)carbamoyl)pyrrolidin-1-yl)-3,3-dimethyl-1-oxobutan-2-yl)carbamoyl)benzo[b]thiophen-5-yl)difluoromethyl)phosphonic acid], the half-maximal degradation concentration (DC50) is 100 to 1000 nM with STAT5 (setting [6]); 100 to 1000 nM in the test on STAT5 (setting [7]); 100 to 1000 nM in the test with STAT5 (setting [3]); over 10000 nM on STAT6 (setting [5]); over 10000 nM at STAT6 (MOLM-16 cells, class symbols, read-out: DC50 S6 MOLM-16).
For `Cc1ncsc1-c1ccc([C@H](CC(=O)NCCOCCC(=O)N[C@@H]2C[C@@H](C(=O)Nc3ncc(-c4ccccc4)s3)N(C(=O)[C@@H](NC(=O)c3cc4cc(C(F)(F)P(=O)(O)O)ccc4s3)C(C)(C)C)C2)NC(=O)[C@@H]2C[C@@H](O)CN2C(=O)[C@@H](NC(=O)C2(F)CC2)C(C)(C)C)cc1` [Compound 580, (difluoro(2-(((S)-1-((2S,4R)-4-(3-(2-((S)-3-((2S,4R)-1-((S)-2-(1-fluorocyclopropane-1-carboxamido)-3,3-dimethylbutanoyl)-4-hydroxypyrrolidine-2-carboxamido)-3-(4-(4-methylthiazol-5-yl)phenyl)propanamido)ethoxy)propanamido)-2-((5-phenylthiazol-2-yl)carbamoyl)pyrrolidin-1-yl)-3,3-dimethyl-1-oxobutan-2-yl)carbamoyl)benzo[b]thiophen-5-yl)methyl)phosphonic acid], the DC50 in the test with STAT5 (setting [1]) and on STAT6 (setting [2]) was over 300 nM in each case.
Consider `CC(C)(C)[C@H](NC(=O)c1cc2cc(C(F)(F)P(=O)(O)O)ccc2s1)C(=O)N1CCC[C@H]1C(=O)N1Cc2ccccc2CC1C(=O)NCCCC#Cc1cccc2c1CN(C1CCC(=O)NC1=O)C2=O` (stereo partly drawn) [Compound 657, ((2-(((2S)-1-((2S)-2-(3-((5-(2-(2,6-dioxopiperidin-3-yl)-1-oxoisoindolin-4-yl)pent-4-yn-1-yl)carbamoyl)-1,2,3,4-tetrahydroisoquinoline-2-carbonyl)pyrrolidin-1-yl)-3,3-dimethyl-1-oxobutan-2-yl)carbamoyl)benzo[b]thiophen-5-yl)difluoromethyl)phosphonic acid], for which the 50% degradation concentration (DC50) in the test with STAT5 (setting [1]) and at STAT6 (setting [2]) was over 300 nM throughout.
Turning to `CN(C(=O)[C@@H]1C[C@@H](OCC(=O)NCCCC#Cc2cccc3c2CN(C2CCC(=O)NC2=O)C3=O)CN1C(=O)[C@@H](NC(=O)c1cc2cc(C(F)(F)P(=O)(O)O)ccc2s1)C(C)(C)C)c1ccc(Br)cc1` (stereo partly drawn) [Compound 411, ((2-(((2S)-1-((2S,4R)-2-((4-bromophenyl)(methyl)carbamoyl)-4-(2-((5-(2-(2,6-dioxopiperidin-3-yl)-1-oxoisoindolin-4-yl)pent-4-yn-1-yl)amino)-2-oxoethoxy)pyrrolidin-1-yl)-3,3-dimethyl-1-oxobutan-2-yl)carbamoyl)benzo[b]thiophen-5-yl)difluoromethyl)phosphonic acid], the DC50 with STAT5 (setting [3]), at STAT6 (setting [4]) and on STAT6 (setting [5]) was over 10000 nM in each case.
In the case of `CN(CCCC#Cc1cccc2c1CN(C1CCC(=O)NC1=O)C2=O)C(=O)CCN(C(=O)[C@@H]1CCCN1C(=O)[C@@H](NC(=O)c1cc2cc(C(F)(F)P(=O)(O)OCOC(=O)C(C)(C)C)ccc2s1)C(C)(C)C)c1ccc2sccc2c1` (stereo partly drawn) [Compound 671, ((((2-(((2S)-1-((2S)-2-(benzo[b]thiophen-5-yl(3-((5-(2-(2,6-dioxopiperidin-3-yl)-1-oxoisoindolin-4-yl)pent-4-yn-1-yl)(methyl)amino)-3-oxopropyl)carbamoyl)pyrrolidin-1-yl)-3,3-dimethyl-1-oxobutan-2-yl)carbamoyl)benzo[b]thiophen-5-yl)difluoromethyl)(hydroxy)phosphoryl)oxy)methyl pivalate], the DC50 in the test on STAT5 (setting [7]) was under 100 nM; at STAT6 (setting [2]), over 300 nM.
Consider `CC(C)(C)[C@H](NC(=O)c1cc2cc(C(F)(F)P(=O)(O)O)ccc2s1)C(=O)N1CCC[C@H]1C(=O)N(CCC(=O)NCCCC#Cc1cccc2c1CN(C1CCC(=O)NC1=O)C2=O)c1ccc2occc2c1` (stereo partly drawn) [Compound 661, ((2-(((2S)-1-((2S)-2-(benzofuran-5-yl(3-((5-(2-(2,6-dioxopiperidin-3-yl)-1-oxoisoindolin-4-yl)pent-4-yn-1-yl)amino)-3-oxopropyl)carbamoyl)pyrrolidin-1-yl)-3,3-dimethyl-1-oxobutan-2-yl)carbamoyl)benzo[b]thiophen-5-yl)difluoromethyl)phosphonic acid], for which the DC50 in the test on STAT5 (setting [6]) is 100 to 1000 nM; in the test on STAT5 (setting [7]) it was under 100 nM; with STAT5 (setting [3]), 100 to 1000 nM; on STAT6 (setting [2]) it was over 300 nM.
As to `CN(CCCC#Cc1cccc2c1CN(C1CCC(=O)NC1=O)C2=O)C(=O)CCN(C(=O)[C@@H]1CCCN1C(=O)[C@@H](NC(=O)c1cc2cc(C(F)(F)P(=O)(O)OCOC(=O)C(C)(C)C)ccc2s1)C(C)(C)C)c1ccc(Br)cc1` (stereo partly drawn) [Compound 677, ((((2-(((2S)-1-((2S)-2-((4-bromophenyl)(3-((5-(2-(2,6-dioxopiperidin-3-yl)-1-oxoisoindolin-4-yl)pent-4-yn-1-yl)(methyl)amino)-3-oxopropyl)carbamoyl)pyrrolidin-1-yl)-3,3-dimethyl-1-oxobutan-2-yl)carbamoyl)benzo[b]thiophen-5-yl)difluoromethyl)(hydroxy)phosphoryl)oxy)methyl pivalate], the DC50 was under 100 nM in the test on STAT5 (setting [7]) and over 300 nM on STAT6 (setting [2]).
